Assay results from the supplement of paper PMC4862054.

How the values were obtained:
BT-474 [1] = test: normalised viability (% of control), CellTiter-Blue; higher = more viable cells (about 100 = DMSO control); conditions: incubation time: 72 h
Summary of the method: (§1)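 After 72 h on compound-loaded 384-well plates, breast cancer cell lines received 2.5 µl CellTiter-Blue reagent for 2 h at 37 °C. Fluorescence at 560/590 nm was scaled per plate so that vehicle was 100 and a positive kill control was 0. The value stands for normalised viability at a single listed concentration of the series.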

BT-549 = test: as above; conditions: incubation time: 72 h
Summary of the method: as §1

CAL-120 = test: as above; conditions: incubation time: 72 h
Summary of the method: as §1

CAL-148 [2] = test: as above; conditions: incubation time: 72 h
Summary of the method: as §1

CAL-51 = test: as above; conditions: incubation time: 72 h
Summary of the method: as §1

CAL-85-1 [3] = test: as above; conditions: incubation time: 72 h
Summary of the method: as §1

DU-4475 = test: as above; conditions: incubation time: 72 h
Summary of the method: as §1

HCC1143 = test: as above; conditions: incubation time: 72 h
Summary of the method: as §1

HCC1599 = test: as above; conditions: incubation time: 72 h
Summary of the method: as §1

HCC1937 = test: as above; conditions: incubation time: 72 h
Summary of the method: as §1

HDQ-P1 = test: as above; conditions: incubation time: 72 h
Summary of the method: as §1

Hs578T = test: as above; conditions: incubation time: 72 h
Summary of the method: as §1

MDA-MB-231 = test: as above; conditions: incubation time: 72 h
Summary of the method: as §1

MDA-MB-436 = test: as above; conditions: incubation time: 72 h
Summary of the method: as §1

MDA-MB-453 = test: as above; conditions: incubation time: 72 h
Summary of the method: as §1

MDA-MB-468 [4] = test: as above; conditions: incubation time: 72 h
Summary of the method: as §1

MFM-223 = test: as above; conditions: incubation time: 72 h
Summary of the method: as §1

SK-BR-3 = test: as above; conditions: incubation time: 72 h
Summary of the method: as §1

BT-474 [5] = test: normalised viability (% of control), CellTiter-Blue; higher = more viable cells (100 = DMSO, 0 = benzethonium chloride kill control); conditions: 1 nM; incubation time: 72 h
Method: (§2)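 DSRT, CellTiter-Blue viability, 72 h incubation. Signal is normalised to DMSO and benzethonium chloride controls. Value is the normalised response at dose 1.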

CAL-85-1 [6] = test: as above; conditions: 1 nM; incubation time: 72 h
Method: as §2

CAL-148 [7] = test: drug sensitivity score (DSS), CellTiter-Blue viability (DSS (AUC-based score)); higher = stronger viability inhibition; extreme values may be limits of the assay; conditions: incubation time: 72 h
Summary of the method: (§3)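 The drug sensitivity score was derived from the area under a fitted dose-response curve. To obtain the curves, breast cancer cells (20 µl suspension) were plated into 384-well plates with compound at 5 or 9 concentrations and kept for 72 h. Viability was measured by CellTiter-Blue fluorescence at 560/590 nm, with each plate normalised to 0.1 % DMSO and a positive kill control.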

MDA-MB-468 [8] = test: as above; conditions: incubation time: 72 h
Summary of the method: as §3

C=CC(=O)Nc1cc2c(Nc3ccc(F)c(Cl)c3)ncnc2cc1OCCCN1CCOCC1 [Canertinib]
normalised viability [%]
Conditions	3 nM	10 nM	30 nM	100 nM	1000 nM	10000 nM
BT-474 [1]	–	93.7	–	–	34.4	16.3
BT-549	–	103	–	–	90.7	2.56
CAL-51	110	–	105	105	–	–
CAL-85-1 [3]	82.5	–	67	64.2	–	–
CAL-120	–	79.9	–	–	72.5	6.63
CAL-148 [2]	81.8	–	88.8	75.6	–	–
DU-4475	107	–	113	96.8	–	–
HCC1143	–	74.9	–	–	89	22.6
HCC1599	–	96.2	–	–	106	43.9
HCC1937	–	62.8	–	–	73.1	13.6
HDQ-P1	106	–	90.6	76	–	–
Hs578T	–	96	–	–	108	1.26
MDA-MB-231	–	91.4	–	–	70.6	6.79
MDA-MB-436	–	139	–	–	43.5	10.5
MDA-MB-453	105	–	86.9	72.6	–	–
MDA-MB-468 [4]	–	89.2	–	–	52.9	1.77
MFM-223	–	94.8	–	–	78.6	19.7
SK-BR-3	–	71.9	–	–	19.9	12.9

Conditions	drug sensitivity score	normalised viability [%]
BT-474 [5]	–	97.5
CAL-85-1 [6]	–	80
CAL-148 [7]	7.47	–
MDA-MB-468 [8]	13.9	–

O=C(O)C1(C(=O)O)CCC1.[NH2-].[NH2-].[Pt+2] [Carboplatin]
normalised viability [%]
Conditions	3 nM	10 nM	30 nM	100 nM	1000 nM	10000 nM
BT-474 [1]	–	127	–	–	121	113
BT-549	–	83.4	–	–	92	87.7
CAL-51	104	–	99	96.2	–	–
CAL-85-1 [3]	98	–	82.2	99.6	–	–
CAL-120	–	87	–	–	95.4	78.3
CAL-148 [2]	90	–	96	95.4	–	–
DU-4475	99	–	74.5	89.4	–	–
HCC1143	–	79.8	–	–	87.1	87.7
HCC1599	–	94.5	–	–	90.7	87.1
HCC1937	–	82.3	–	–	103	54.2
HDQ-P1	108	–	107	103	–	–
Hs578T	–	105	–	–	94.1	109
MDA-MB-231	–	85.8	–	–	113	93.7
MDA-MB-436	–	80.3	–	–	95.9	82.2
MDA-MB-453	113	–	93.3	102	–	–
MDA-MB-468 [4]	–	100	–	–	98.9	83.3
MFM-223	–	86	–	–	98.4	48.7
SK-BR-3	–	100	–	–	103	113

Conditions	drug sensitivity score	normalised viability [%]
BT-474 [5]	–	109
CAL-85-1 [6]	–	90.2
CAL-148 [7]	2.02	–
MDA-MB-468 [8]	0	–
